The test system of test [1] is MDA-MB-453. As to the kind of experiment: drug sensitivity score (DSS), single agent (DSS (weighted AUC score)); higher = more sensitive (stronger viability decrease); extreme values may be limits of the assay. Particulars: BLU9931 0 nM; 72 h. In outline: (§1)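 Drug sensitivity scores come from a weighted area under a four-parameter logistic fit to percent viability, normalised per plate to control wells. Viability was based on cellular ATP read with CellTiterGlo 2.0 after 72 h at 37 °C, 5% CO2. Each 384-well plate carried FIMM Oncology set compounds in singlicate at five 10-fold dilutions, with 2000 MDA-MB-453 cells per well in medium with or without an FGFR4 inhibitor at 100 nM final.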

The subject of test [2] is MDA-MB-453. As to the kind of experiment: drug sensitivity score (DSS), in combination with BLU9931 (DSS (weighted AUC score)); higher = more sensitive (stronger viability decrease); extreme values may be limits of the assay. The note with it: BLU9931 100 nM; 72 h. Summed up:
as §1

The source of these data is the supplement of paper PMC7224384.

The structures appear in SMILES notation.

As for `COc1cc(Nc2ncc(F)c(Nc3ccc4c(n3)N(COP(=O)(O)O)C(=O)C(C)(C)O4)n2)cc(OC)c1OC` [Fostamatinib], the figures for the drug sensitivity score in test [1] and in test [2] were 0.1 and 0, respectively.

Regarding `Oc1ncnc2[nH]ncc12` [Allopurinol], the figures for the drug sensitivity score in test [1] and in test [2] were 0.1 and 0.3, respectively.

As for `C/C=C1\NC(=O)[C@H]2CSSCC/C=C/[C@H](CC(=O)N[C@H](C(C)C)C(=O)N2)OC(=O)[C@H](C(C)C)NC1=O` [Romidepsin], the drug sensitivity score was found to be 32 in test [1] and 33.3 in test [2].

`CCN(CC)CCCC(C)Nc1ccnc2cc(Cl)ccc12` (stereo unspecified) [Chloroquine]: the drug sensitivity score in test [1] came out at 7.6; in test [2], 7.

Regarding `NC(=O)c1cccc(-c2cccc(OC(=O)NC3CCCCC3)c2)c1` [URB597], the drug sensitivity score in test [1] and in test [2] was 0 each time.

Consider `CNc1nc(-c2ccc3c(N)n[nH]c3c2)cc(N2C[C@@H](C(=O)NC3CCCCC3)CC[C@H]2C)n1`, for which the figures for the drug sensitivity score in test [1] and in test [2] were 4.8 and 3.9, respectively.

For `Cc1cc2c(F)c(Oc3ncnn4cc(OC[C@@H](C)O)c(C)c34)ccc2[nH]1` [Brivanib], the drug sensitivity score in test [1] and in test [2] was 0 throughout.

As for `Cc1cc(C)c(CNC(=O)c2cc(-c3ccc(CN4CCOCC4)cc3)cc3c2cnn3C2CCCC2)c(=O)[nH]1` [EPZ-5687], the drug sensitivity score was found to be 0.5 in test [1] and 0 in test [2].

For the molecule `C=CC(=O)N1CC/C(=C\c2ccc(F)c([N+](=O)[O-])c2)C(=O)/C(=C/c2ccc(F)c([N+](=O)[O-])c2)C1` [VLX1570], the results for the drug sensitivity score in test [1] and in test [2] were 21.1 and 19.3, respectively.

Take `O=C(O)c1ccc(O)c2ncccc12` [IOX-1]: the drug sensitivity score in test [1] amounted to 1.6; in test [2] it was 3.6.

In the case of `COc1cc2c(cc1-c1c(C)noc1C)ncc1[nH]c(=O)n([C@H](C)c3ccccn3)c12` [I-BET151], the drug sensitivity score in test [1] came out at 11.5; in test [2], 11.4.

As to `Nc1ncn([C@H]2C[C@H](O)[C@@H](CO)O2)c(=O)n1` [Decitabine], the drug sensitivity score in test [1] and in test [2] was 0 each time.

In the case of `C[C@H]1O[C@@H](O[C@H]2[C@@H](O)C[C@H](O[C@H]3[C@@H](O)C[C@H](O[C@H]4CC[C@@]5(C)[C@H](CC[C@@H]6[C@@H]5C[C@@H](O)[C@]5(C)[C@@H](C7=CC(=O)OC7)CC[C@]65O)C4)O[C@@H]3C)O[C@@H]2C)C[C@H](O)[C@@H]1O` [Digoxin], the drug sensitivity score stood at 8.2 in test [1] and 10.6 in test [2].

Consider `O=c1[nH]cc(F)c(=O)[nH]1` [Fluorouracil], for which the drug sensitivity score in test [1] is 2.1; in test [2], 0.1.

In the case of `CCc1cc2c(cc1N1CCC(N3CCOCC3)CC1)C(C)(C)c1[nH]c3cc(C#N)ccc3c1C2=O` [Alectinib], the drug sensitivity score in test [1] was 0.9; in test [2] it was 0.

Take `Cc1cnc(Nc2ccc(OCCN3CCCC3)cc2)nc1Nc1cccc(S(=O)(=O)NC(C)(C)C)c1` [Fedratinib]: the drug sensitivity score in test [1] was determined as 8.3; in test [2] it was 6.3.

In the case of `Nc1nc(Cl)nc2c1ncn2[C@H]1C[C@H](O)[C@@H](CO)O1` [Cladribine], the drug sensitivity score in test [1] and in test [2] was 0 each time.

Turning to `CNC(=O)c1ccccc1Nc1nc(Nc2ccc3c(c2OC)CCC[C@H](N2CCN(CCO)CC2)C3)ncc1Cl`, the drug sensitivity score in test [1] amounted to 6.7; in test [2] it was 5.6.

For `O=C(/C=C\n1cnc(-c2cc(C(F)(F)F)cc(C(F)(F)F)c2)n1)NNc1ccccn1` [Verdinexor], the drug sensitivity score worked out at 4.7 in test [1] and 4.9 in test [2].

With `COc1ccc2[nH]cc(/C=C3\C(=O)Nc4ccc(NC(=O)CCN5CCCCC5)cc43)c2c1`, the drug sensitivity score in test [1] was 6.1; in test [2] it was 4.8.

With `CCCCCOC(=O)Nc1nc(=O)n([C@@H]2O[C@H](C)[C@@H](O)[C@H]2O)cc1F` [Capecitabine], the drug sensitivity score in test [1] was 2.3; in test [2] it was 0.2.

Regarding `CCCCCCCCCCCCCCCCCCOP(=O)([O-])OC1CC[N+](C)(C)CC1` [Perifosine], the drug sensitivity score in test [1] and in test [2] was 0 throughout.

With `O=C(O)CCCCC(CCSCc1ccccc1)SCc1ccccc1` (stereo unspecified) [CPI-613], the drug sensitivity score in test [1] and in test [2] was 0 each time.

Turning to `CC(C)(C)c1cc(NC(=O)Nc2ccc(Oc3ccnc4[nH]c(=O)cnc34)cc2F)n(-c2ccccc2)n1`, the drug sensitivity score was found to be 7.9 in test [1] and 6.7 in test [2].

For the molecule `Nc1nc2[nH]cnc2c(=S)[nH]1` [Thioguanine], the results for the drug sensitivity score in test [1] and in test [2] were 10.4 and 5.9, respectively.

For `CN1CCC(COc2cnc(-c3cccc(Cn4nc(-c5cccc(C#N)c5)ccc4=O)c3)nc2)CC1` [Tepotinib], the drug sensitivity score in test [1] and in test [2] was 0 throughout.

As for `CO[C@@]12[C@H](COC(N)=O)C3=C(C(=O)C(C)=C(N)C3=O)N1C[C@@H]1N[C@@H]12` [Mitomycin C], the drug sensitivity score in test [1] and in test [2] was 0 in each case.

In the case of `C[C@H]1CN(C2COC2)CCN1c1ccc(Nc2cc(-c3ccnc(N4CCn5c(cc6c5CC(C)(C)C6)C4=O)c3CO)cn(C)c2=O)nc1` [GDC-0853], the drug sensitivity score in test [1] and in test [2] was 0 throughout.

For the molecule `C[C@]1(c2nc3c(C(N)=O)cccc3[nH]2)CCCN1` [Veliparib], the drug sensitivity score in test [1] turned out to be 1.6; in test [2] it was 2.9.

With `N#CC1(c2ccc(NC(=O)c3cccnc3NCc3ccncc3)cc2)CCCC1` [Apatinib], the drug sensitivity score turned out to be 0.7 in test [1] and 0 in test [2].

Regarding `COc1cc(C)c(/C=C/C(C)=C/C=C/C(C)=C/C(=O)O)c(C)c1C` [Acitretin], the drug sensitivity score is 0.2 in test [1] and 0 in test [2].

`Nc1nc(NC2CC2)cc(-c2cccc(Cl)c2Cl)n1` [TH588]: the drug sensitivity score was 2.4 in test [1] and 1.7 in test [2].

As to `CC(=O)O[C@]1(C(C)=O)CC[C@H]2[C@@H]3C=C(C)C4=CC(=O)CC[C@]4(C)[C@H]3CC[C@@]21C` [Megestrol acetate], the values for the drug sensitivity score in test [1] and in test [2] were 2.2 and 0, respectively.

Regarding `Cc1c(F)cc(C(=O)NC2CC2)cc1-c1ccc(C(=O)NCC(C)(C)C)cn1` [Losmapimod], the drug sensitivity score in test [1] was determined as 0.4; in test [2], 1.4.

Take `S=C(NCc1ccc2c(c1)OCO2)N1CCN(c2ncnc3c2oc2ccccc23)CC1` [Amuvatinib]: the drug sensitivity score in test [1] worked out at 3.3; in test [2], 0.3.

Take `CN(C)C(=O)c1cc2cnc(Nc3ccc(N4CCNCC4)cn3)nc2n1C1CCCC1` [Ribociclib]: the figures for the drug sensitivity score in test [1] and in test [2] were 1.4 and 3.6, respectively.

On to `O=C(c1ccc(OCCN2CCCCC2)cc1)c1c(-c2ccc(O)cc2)sc2cc(O)ccc12` [Raloxifene], for which the results for the drug sensitivity score in test [1] and in test [2] were 2.4 and 2.5, respectively.

Take `CN1CCN(c2cc(C(=O)Nc3ccc4c(c3)-c3c(c(C(N)=O)nn3-c3ccc(F)cc3)CC4)c(Cl)cn2)CC1` [PHA 408]: the drug sensitivity score in test [1] came to 4.9; in test [2], 3.4.
